PubChem BioAssay AID488890 (Southern Research Specialized Biocontainment Screening …, 2010)
Records with an inconclusive call do not appear. Active and inactive are the calls of the source. No rule for the calls is given here.

These compounds were tested on Mycobacterium tuberculosis non-replicating, growth inhibition (assay: growth inhibition of non-replicating M. tuberculosis (AID 488890)).

Question: For `Brc1ccc(OCCCCN2CCCCC2)cc1`, which IC50 is on record?
Answer: The IC50 was 41.7 µM (inactive).

Question: For `O=c1c2cc(Br)ccc2nc(-c2ccc([N+](=O)[O-])cc2)n1O`, which IC50 is on record?
Answer: The IC50 was 0.99 µM.

Question: For `Cc1[nH]n(-c2ccccc2)c(=O)c1C=Nc1cnc2ccccc2c1`, which IC50 is on record?
Answer: Its IC50 is 6.23 µM.

Question: Which IC50 does the source give for `CCN1CSC(=S)N(Cc2ccc(OC)cc2)C1` here?
Answer: The IC50 was 18.5 µM (inactive).

Question: `COc1ccc(OCC(=O)N/N=C2\CCc3ccccc32)cc1` was tested. Which IC50 did it give?
Answer: The IC50 was 9.35 µM.

Question: Which IC50 does the source give for `CCOCC(=O)Nc1ccc(C)c(Cl)c1` here?
Answer: The IC50 was 5.63 µM.

Question: For `O=Cc1ccc(OC2OCCOC2Oc2ccc(C=O)cc2)cc1` (configuration not stated), which IC50 is on record?
Answer: The IC50 was 14.2 µM (inactive).

Question: `CC(C)c1cc(C(=O)N/N=C/C=C/c2ccccc2)n[nH]1` was tested. Which IC50 did it give?
Answer: Its IC50 is 27 µM (inactive).

Question: For `COc1ccccc1-c1cc(SC)c(C#N)c(=O)o1`, which IC50 is on record?
Answer: Its IC50 is 14.2 µM (inactive).

Question: For `COC(=O)CN(C#N)c1nc(N(C)C)nc(N(C)C)n1`, which IC50 is on record?
Answer: The IC50 was 16.5 µM (inactive).

Question: `CCCCCn1nnc2c(=O)oc3ccccc3c21` was tested. Which IC50 did it give?
Answer: The IC50 was 1.2 µM.

Question: Which IC50 does the source give for `CCCOc1ccc(CCC(=O)N/N=C/c2ccc([N+](=O)[O-])o2)cc1` here?
Answer: Its IC50 is 4.22 µM.

Question: For `CCn1c(NC(=O)c2nn(C)cc2Br)nc2ccccc21`, which IC50 is on record?
Answer: The IC50 was 4.97 µM.

Question: How did the IC50 turn out when `Cc1ccc(C2=N/C(=C\c3cccnc3)C(=O)O2)cc1` was run?
Answer: The IC50 was 6.58 µM.

Question: Which IC50 does the source give for `Cc1ccnc(NC(=O)CCc2c[nH]c3ccccc23)c1` here?
Answer: The IC50 was 5.51 µM.

Question: With `COc1ccc(NC(=O)CCCN2C(=O)/C(=C\c3ccco3)SC2=S)cc1` as the compound, how does the IC50 read?
Answer: Its IC50 is 7.93 µM.

Question: Which IC50 does the source give for `Clc1ccc(Cc2nnc(-c3cccs3)o2)cc1` here?
Answer: The IC50 was under 0.1 µM.

Question: For `CC(/C=C/c1ccco1)=N/NC(=O)c1ccc(C)nc1`, which IC50 is on record?
Answer: Its IC50 is 13.4 µM (inactive).

Question: Which IC50 does the source give for `Cc1nnc(N/N=C/c2cccc(OCc3ccc(Cl)c(Cl)c3)c2)n1N` here?
Answer: Its IC50 is 3.37 µM.

Question: Which IC50 does the source give for `O=C(NNC1=Nc2ccccc2SC1)c1ccc(F)cc1` here?
Answer: Its IC50 is 17.3 µM (inactive).

Question: How did the IC50 turn out when `CC(C)(c1ccccc1)c1ccc(OCC(O)CNC2CCN(Cc3ccccc3)CC2)cc1` (configuration not stated) was run?
Answer: Its IC50 is 5.9 µM.

Question: How did the IC50 turn out when `Cc1csc(=Nc2cccnc2)n1CC1CCCCC1` was run?
Answer: The IC50 was 17.5 µM (inactive).

Question: How did the IC50 turn out when `COc1ccc(/C(C)=N/Nc2ncc(Cl)cc2Cl)c(O)c1` was run?
Answer: The IC50 was 4.51 µM.

Question: Which IC50 does the source give for `O=C(CCS(=O)(=O)Cc1ccccc1)Nc1ncc([N+](=O)[O-])s1` here?
Answer: The IC50 was 1.97 µM.

Question: Which IC50 does the source give for `O=C(NNC1=C(C(=O)C(F)(F)F)CCC1)c1ccccc1Cl` here?
Answer: Its IC50 is 1.32 µM.

Question: How did the IC50 turn out when `O=C(Nc1nc2c(Cl)cccc2s1)c1ccc([N+](=O)[O-])o1` was run?
Answer: Its IC50 is 1.56 µM.

Question: How did the IC50 turn out when `CC(C)C1O/C(=N/C(=O)Nc2ccc(Cl)c(Cl)c2)NC1=O` (configuration not stated) was run?
Answer: The IC50 was 4.76 µM.

Question: For `O=C(COC(=O)c1cccs1)NCCC1=CCCCC1`, which IC50 is on record?
Answer: The IC50 was 14.1 µM (inactive).

Question: For `Cc1cc(C)c2c(=O)n(CC(=O)Nc3cccc(Cl)c3C)sc2n1`, which IC50 is on record?
Answer: The IC50 was 7.18 µM.

Question: For `CCC(=O)c1ccc(OCC(=O)OCC(=O)N2CCc3ccccc3C2)cc1`, which IC50 is on record?
Answer: The IC50 was 13 µM (inactive).

Question: How did the IC50 turn out when `CC1=C(/C=C/C(C)=N\NC(=O)c2ccncc2)C(C)(C)CCC1` was run?
Answer: The IC50 was 1.15 µM.

Question: With `COc1ccc(C(=O)N/N=C(\c2ccccc2)c2ccccn2)cc1` as the compound, how does the IC50 read?
Answer: Its IC50 is 3.27 µM.

Question: `COc1ccc(-c2nnc(SCC(C)C)o2)cc1` was tested. Which IC50 did it give?
Answer: Its IC50 is 0.9 µM.

Question: Which IC50 does the source give for `O=[N+]([O-])c1ccc2nc(SCc3cn4ccccc4n3)[nH]c2c1` here?
Answer: Its IC50 is 8.98 µM.

Question: `C/C(=N\NC(=O)c1cc2ccccc2cc1O)c1ccc(C)o1` was tested. Which IC50 did it give?
Answer: Its IC50 is 2.04 µM.

Question: For `COc1cc(/C=N/Nc2ccc(Cl)c(C(=O)O)c2)ccc1OC(=O)c1ccco1`, which IC50 is on record?
Answer: Its IC50 is 11.9 µM (inactive).

Question: `COc1ccccc1N1CCN(C(=O)c2ccc([N+](=O)[O-])s2)CC1` was tested. Which IC50 did it give?
Answer: The IC50 was 5.97 µM.

Question: How did the IC50 turn out when `CCN(CC)C(=O)c1sc2nc(-c3ccccc3)ccc2c1N` was run?
Answer: The IC50 was 14.7 µM (inactive).

Question: Which IC50 does the source give for `COc1ccc(C(CCNCc2ccc(OC(C)C)cc2)C(C)C)cc1` (configuration not stated) here?
Answer: Its IC50 is 10.2 µM (inactive).

Question: `CC1C/C(=N/NC(=O)c2cccc(F)c2)c2ccc(O)cc2C1` (configuration not stated) was tested. Which IC50 did it give?
Answer: The IC50 was 14 µM (inactive).

Question: With `CC1CC(C)CN(C(=O)COC(=O)c2ccc([N+](=O)[O-])o2)C1` (configuration not stated) as the compound, how does the IC50 read?
Answer: Its IC50 is 5.18 µM.

Question: With `N/C(=N/OC(=O)c1ccc(Cl)cc1)c1ncc([N+](=O)[O-])s1` as the compound, how does the IC50 read?
Answer: The IC50 was 7.53 µM.

Question: With `Cc1ccc2nc(NC(=O)c3ccccn3)sc2c1` as the compound, how does the IC50 read?
Answer: The IC50 was 0.63 µM.

Question: Which IC50 does the source give for `COCCSc1nnc(NC(=O)CCS(=O)(=O)Cc2ccccc2)s1` here?
Answer: The IC50 was 5.14 µM.

Question: Which IC50 does the source give for `O=C(OCc1nc2ccccc2s1)c1ccc(Br)o1` here?
Answer: The IC50 was 3.63 µM.

Question: `c1ccc2[nH]c(NC3=NCCC3)nc2c1` was tested. Which IC50 did it give?
Answer: The IC50 was 19.2 µM (inactive).

Question: For `O=C(c1ccccc1[N+](=O)[O-])N1N=C(c2ccccc2)CC1(O)C(F)(F)F` (configuration not stated), which IC50 is on record?
Answer: The IC50 was 3.92 µM.

Question: With `Fc1cccc2sc(N3CCCC3)nc12` as the compound, how does the IC50 read?
Answer: The IC50 was 23.1 µM (inactive).

Question: Which IC50 does the source give for `Cc1nnc(-c2ccccc2)c(=O)n1/N=C/c1c(O)ccc2ccccc12` here?
Answer: The IC50 was 1.31 µM.

Question: For `O=C(N/N=C/c1cc(Br)c(Br)s1)c1ccncc1`, which IC50 is on record?
Answer: The IC50 was 3.18 µM.

Question: How did the IC50 turn out when `COCCOC(=O)c1c(C)oc2ccc(OC(=O)c3ccco3)cc12` was run?
Answer: The IC50 was 9.15 µM.

Question: With `COc1ccc(OC)c(N2C(=O)NC(=O)/C(=C/c3ccc([N+](=O)[O-])s3)C2=O)c1` as the compound, how does the IC50 read?
Answer: Its IC50 is 25.5 µM (inactive).

Question: For `CCOC(=O)Nc1cccc(OCC(=O)Nc2ccc(OC)cc2OC)c1`, which IC50 is on record?
Answer: The IC50 was 16.5 µM (inactive).

Question: With `COCCn1c(C)cc(C(=O)COC(=O)c2ccc([N+](=O)[O-])o2)c1C` as the compound, how does the IC50 read?
Answer: The IC50 was 2.79 µM.

Question: With `CCCOc1ccc(C(=O)NNC(=S)NC(=O)c2cccs2)cc1` as the compound, how does the IC50 read?
Answer: Its IC50 is 0.46 µM.

Question: `Cc1cc2cc(CNC(=O)COc3ccccc3)ccc2n1C` was tested. Which IC50 did it give?
Answer: Its IC50 is 26 µM (inactive).

Question: How did the IC50 turn out when `CCc1ccc(OCC(=O)NNC(=O)c2cnccn2)c(Br)c1` was run?
Answer: The IC50 was 4.69 µM.
